# In publication PMC12446476 (Nature Communications, 2025):
# Values joined by “and” are separate entries in the source; they are usually repeats but may differ in a detail not shown here. Equal entries are not always repeated. Where two headings read alike, the source gives them in different places.
# Tests used:
# N. gonorrhoeae = assay: MIC determination, agar dilution (CLSI); assay type: cell-based, Neisseria gonorrhoeae
# Method in brief: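 For N. gonorrhoeae, WHO 2024 reference strains served as quality control, only whole doubling-dilution MICs were reported, and isolates were classified by EUCAST v14.0 breakpoints or ECOFF. Time-kill assays followed CLSI in Columbia broth with 1% IsoVitaleX, and viable counts came from plating serial dilutions on GC agar with IsoVitaleX.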
# [1] = test system: intracellular N. gonorrhoeae; assay: Intracellular killing in HeLa229 cells; assay type: cell-based, Neisseria gonorrhoeae; settings: for reduction of intracellular bacteria: within 24 h; for Colony forming units (CFU) of N. gonorrhoeae internalised in HeLa229 cells, colony count: dilution 0, replicates 1-3, counts 1-2
# Protocol: Intracellular killing was assessed within HeLa229 cells (European Collection of Authenticated Cell Cultures, London, UK) that were seeded at ~3 × 10^5 cells/mL and grown to 70–80% confluence in RPMI-glutamine media supplemented with 10% (v/v) heat-inactivated fetal bovine serum (FBS, Gibco, MA, USA). Cells were incubated at 37 °C with 5% CO2 for 24 h, then washed with serum-free RPMI-1640 prior to infection. N. gonorrhoeae was scraped from agar plates and resuspended in Dulbecco’s Phosphate Buffered Saline (DPBS, Sigma-Aldrich), pelleted, then resuspended in RPMI with 2% FBS. Bacterial suspensions were used to infect HeLa229 cells at a multiplicity of infection of 100:1. Plates were briefly centrifuged (500 × g for 5 min), then incubated for one hour. This incubation and all subsequent incubations were performed at 37 °C with 5% CO2. Non-adherent cells were removed by washing with serum-free RPMI, and the remaining extracellular bacteria were killed via resuspension in RPMI-glutamine supplemented with 2% FBS and 200 μg/mL gentamycin and incubation for one hour. […] Azithromycin-treated samples were included for control/comparison. […] Samples were diluted and plated onto chocolate II agar for viable bacteria quantification. Intracellular killing assays were performed at Microbiologics, Kalamazoo, MI, USA, using a method adapted from previous studies[68],[69].
# S. aureus ATCC 29213 = assay: S. aureus neutropenic murine thigh infection model; assay type: in vivo, mouse; settings: for reduction in thighs: dosed as Debio 1453 P; for Mean Diff. 0h vs. treatment, log10 CFU: S. aureus ATCC 29213, daily dose
# Protocol: The S. aureus neutropenic murine thigh infection model was performed in accordance with the Guide for Care and Use of Laboratory Animals[75]. Animal rooms were maintained at a temperature range of 20–24 °C and humidity between 30% and 70%, with 12 h light/dark cycles. Female ICR mice (BioLASCO Taiwan Co., Ltd.) were rendered neutropenic via IP injection of cyclophosphamide four days before infection (150 mg/kg) and again one day before infection (100 mg/kg). Animals were anaesthetised with isoflurane (3–5%), then inoculated intramuscularly with S. aureus ATCC 29213 (~1 × 10^5 CFU/mouse). […] Animals were sacrificed via CO2 asphyxiation at either 2 h (baseline), 26 and/or 50 h post-infection. Thigh tissues were harvested and homogenised in 3 mL sterile PBS (pH 7.4). Bacterial burdens were determined by performing 10-fold serial dilutions and plating on nutrient agar plates.
# [2] = Neisseria gonorrhoeae, 100 contemporary clinical N. gonorrhoeae isolates
smiles,measurement,setting,value
Cc1c(CN(C)C(=O)/C=C/c2cnc3c(c2)N[C@H](C)[C@H](O)C(=O)N3)oc2ccccc12 [Debio 1453],MIC,"N. gonorrhoeae; Neisseria gonorrhoeae, screening panel N. gonorrhoeae isolate J, read-out: Minimum inhibitory concentration",0.06 µg/mL
same,MIC,"N. gonorrhoeae; Neisseria gonorrhoeae, screening panel N. gonorrhoeae isolate K, read-out: Minimum inhibitory concentration",0.125 µg/mL
same,MIC,"N. gonorrhoeae; Neisseria gonorrhoeae, screening panel N. gonorrhoeae isolate L, read-out: Minimum inhibitory concentration",0.06 µg/mL
same,MIC,"N. gonorrhoeae; Neisseria gonorrhoeae, screening panel N. gonorrhoeae isolate M, read-out: Minimum inhibitory concentration",0.03 µg/mL
same,MIC,"N. gonorrhoeae; Neisseria gonorrhoeae, screening panel N. gonorrhoeae isolate N, read-out: Minimum inhibitory concentration",0.03 µg/mL
same,MIC,"N. gonorrhoeae; Neisseria gonorrhoeae, two clones of strain 6804 with FabI L257F",0.25 µg/mL
same,MIC50,N. gonorrhoeae; [2],0.06 µg/mL
same,MIC90,N. gonorrhoeae; [2],0.06 µg/mL
same,NgMIC50,N. gonorrhoeae; screening panel of 14 N. gonorrhoeae isolates,0.03 µg/mL
same,reduction of intracellular bacteria,[1]; ATCC 49226 in HeLa229 cells,≥ 3.1 log10CFU/mL
same,reduction of intracellular bacteria,[1]; WHO X in HeLa229 cells,≥ 2.8 log10CFU/mL
same,"Colony forming units (CFU) of N. gonorrhoeae internalised in HeLa229 cells, colony count","[1]; isolate ATCC 49226, 3 hr, 2X MIC",39 CFU and 23 CFU and 37 CFU and 34 CFU and 36 CFU and 40 CFU
same,"Colony forming units (CFU) of N. gonorrhoeae internalised in HeLa229 cells, colony count","[1]; isolate ATCC 49226, 3 hr, 4X MIC",53 CFU and 63 CFU and 32 CFU and 35 CFU and 51 CFU and 39 CFU
same,"Colony forming units (CFU) of N. gonorrhoeae internalised in HeLa229 cells, colony count","[1]; isolate ATCC 49226, 3 hr, 8X MIC",26 CFU and 40 CFU and 33 CFU (2×) and 29 CFU and 38 CFU
same,"Colony forming units (CFU) of N. gonorrhoeae internalised in HeLa229 cells, colony count","[1]; isolate ATCC 49226, 6 hr, 2X MIC",5 CFU
same,"Colony forming units (CFU) of N. gonorrhoeae internalised in HeLa229 cells, colony count","[1]; isolate ATCC 49226, 6 hr, 4X MIC",5 CFU (2×) and 6 CFU
same,"Colony forming units (CFU) of N. gonorrhoeae internalised in HeLa229 cells, colony count","[1]; isolate ATCC 49226, 6 hr, 8X MIC",2 CFU and 6 CFU (2×)
same,"Colony forming units (CFU) of N. gonorrhoeae internalised in HeLa229 cells, colony count","[1]; isolate ATCC 49226, 10 hr, 2X MIC",0 CFU
same,"Colony forming units (CFU) of N. gonorrhoeae internalised in HeLa229 cells, colony count","[1]; isolate ATCC 49226, 10 hr, 4X MIC",1 CFU (3×) and 0 CFU (3×)
same,"Colony forming units (CFU) of N. gonorrhoeae internalised in HeLa229 cells, colony count","[1]; isolate ATCC 49226, 10 hr, 8X MIC",0 CFU
same,"Colony forming units (CFU) of N. gonorrhoeae internalised in HeLa229 cells, colony count","[1]; isolate ATCC 49226, 24 hr, 2X MIC",0 CFU
same,"Colony forming units (CFU) of N. gonorrhoeae internalised in HeLa229 cells, colony count","[1]; isolate ATCC 49226, 24 hr, 4X MIC",0 CFU
same,"Colony forming units (CFU) of N. gonorrhoeae internalised in HeLa229 cells, colony count","[1]; isolate ATCC 49226, 24 hr, 8X MIC",0 CFU
same,"Colony forming units (CFU) of N. gonorrhoeae internalised in HeLa229 cells, colony count","[1]; isolate NCTC 13820, 3 hr, 2X MIC",27 CFU and 24 CFU (2×)
same,"Colony forming units (CFU) of N. gonorrhoeae internalised in HeLa229 cells, colony count","[1]; isolate NCTC 13820, 3 hr, 4X MIC",25 CFU and 30 CFU and 34 CFU
same,"Colony forming units (CFU) of N. gonorrhoeae internalised in HeLa229 cells, colony count","[1]; isolate NCTC 13820, 3 hr, 8X MIC",29 CFU (2×) and 25 CFU and 31 CFU
same,"Colony forming units (CFU) of N. gonorrhoeae internalised in HeLa229 cells, colony count","[1]; isolate NCTC 13820, 6 hr, 2X MIC",6 CFU and 12 CFU
same,"Colony forming units (CFU) of N. gonorrhoeae internalised in HeLa229 cells, colony count","[1]; isolate NCTC 13820, 6 hr, 8X MIC",5 CFU (2×) and 0 CFU and 11 CFU
same,"Colony forming units (CFU) of N. gonorrhoeae internalised in HeLa229 cells, colony count","[1]; isolate NCTC 13820, 10 hr, 2X MIC",1 CFU (2×) and 2 CFU and 0 CFU
same,"Colony forming units (CFU) of N. gonorrhoeae internalised in HeLa229 cells, colony count","[1]; isolate NCTC 13820, 10 hr, 4X MIC",1 CFU (2×) and 2 CFU (3×) and 0 CFU
same,"Colony forming units (CFU) of N. gonorrhoeae internalised in HeLa229 cells, colony count","[1]; isolate NCTC 13820, 10 hr, 8X MIC",2 CFU and 1 CFU (2×) and 0 CFU (2×)
same,"Colony forming units (CFU) of N. gonorrhoeae internalised in HeLa229 cells, colony count","[1]; isolate NCTC 13820, 24 hr, 2X MIC",0 CFU
same,"Colony forming units (CFU) of N. gonorrhoeae internalised in HeLa229 cells, colony count","[1]; isolate NCTC 13820, 24 hr, 4X MIC",0 CFU
same,reduction in thighs,S. aureus ATCC 29213; 24 h,> 1 log10CFU/mL
same,reduction in thighs,S. aureus ATCC 29213; 48 h,> 2 log10CFU
same,"Mean Diff. 0h vs. treatment, log10 CFU","S. aureus ATCC 29213; 20 µg/mL Debio 1453, 24h",-1.552
same,"Mean Diff. 0h vs. treatment, log10 CFU","S. aureus ATCC 29213; 20 µg/mL Debio 1453, 48h",-2.396
same,"Mean Diff. 0h vs. treatment, log10 CFU","S. aureus ATCC 29213; 40 µg/mL Debio 1453, 24h",-0.054
same,"Mean Diff. 0h vs. treatment, log10 CFU","S. aureus ATCC 29213; 40 µg/mL Debio 1453, 48h",-1.464
same,"Mean Diff. 0h vs. treatment, log10 CFU","S. aureus ATCC 29213; 60 µg/mL Debio 1453, 24h",1.22
same,"Mean Diff. 0h vs. treatment, log10 CFU","S. aureus ATCC 29213; 60 µg/mL Debio 1453, 48h",1.476
same,"Mean Diff. 0h vs. treatment, log10 CFU","S. aureus ATCC 29213; 80 µg/mL Debio 1453, 24h",1.132
same,"Mean Diff. 0h vs. treatment, log10 CFU","S. aureus ATCC 29213; 80 µg/mL Debio 1453, 48h",2.658
same,"Mean Diff. 0h vs. treatment, log10 CFU","S. aureus ATCC 29213; 160 µg/mL Debio 1453, 24h",1.558
same,"Mean Diff. 0h vs. treatment, log10 CFU","S. aureus ATCC 29213; 160 µg/mL Debio 1453, 48h",2.682
